In US11117919B2, “Icariside compound, preparation method thereof, and application thereof” (FOSHAN GOLDEN HEALTH TECHNOLOGY CO., LTD., priority 2015, dated 2021):

Assays:
[1] = tested on: human peripheral blood mononuclear cells (PBMCs); assay: Immunological screening model: IFN-γ produced in human PBMCs; type: cell-based
Excerpt: The present inventors have long been researching the active components in traditional Chinese herbal medicine and their applications in immunotherapy. The present inventors have established an immunological test model based on determination of the level of IFN-γ produced in human peripheral blood mononuclear cells (PBMCs). By this model, compounds having promotion (or inhibition) effects on human peripheral blood mononuclear cells (PBMCs) to produce γ-interferon can be screened out from chemical components from various sources including traditional Chinese herbal medicine, medicinal plants and so on. Since the γ-Interferon is an important protein (cytokine) in human body's immune system to resist attacks from diseases, its production level in body directly relates to the body's immunity. Therefore, the model is an ideal tool to screen and find functional pharmaceuticals for improving human immunity.
In addition, all the results and achievements of the present invention are based on the very effective screening model established by the present inventors. Therefore, a further objective of the present invention is to provide an experimental model for screening substances having impacts (either enhance or inhibit) on immunity. […] Finally, by using ELISA techniques, the levels of IFN-γ produced in the culture were measured at different incubation time. […]

[2] = tested on: S180 ascites tumor of mice; assay: Inhibition of S180 tumor growth in mice; conditions: 60 mg/Kg i.p., 10 days
Experimental: NIH mice used for the tests were about 18-22 grams and divided into 10 mice per group. The liquid (0.2 ml) of S180 ascites tumor of mice was inoculated subcutaneously into the armpit region of mice. The next day after the inoculation, each group of mice were injected intraperitoneally: (1) physiological saline group; (2) solvent control group (DMSO); (3) positive control group [cyclophosphamide 60 mg/(kg·d)]; (4) low-dose group 1: icariside I 2 mg/(kg·d); (5) low-dose group 2: icariside I 5 mg/(kg·d); (6) middle-dose group: icariside I 10 mg/(kg·d); (7) high-dose group: icariside I 20 mg/(kg·d). After administration for 10 continuous days, the administration was stopped and on the next day, the mice were weighed and sacrificed with tumor mass stripped and weighed. The physiological saline group and solvent group were used as a control for calculation of tumor inhibition rate.

[3] = tested on: human peripheral blood mixed lymphocytes; assay: IFN-γ production in mixed lymphocyte culture (MLC) reaction; type: cell-based; conditions: final concentration 1000 ng/ml, 120 h
Experimental: Effect of icariside I on promotion of γ-interferon (interferon-gamma, IFN-γ) production by human peripheral blood mixed lymphocytes during culture (an experimental model mimicking enhancing immunity in human body).
(1) Preparation of human peripheral blood mononuclear cells (PBMCs): following the method in Example 5 (2), peripheral blood PBMCs from two normal human were prepared.
Cell concentrations of freshly isolated peripheral blood mononuclear cells (PBMCs) were adjusted to […] with RPMI1640 complete medium. Then, lymphocytes from two healthy human with equal volumes were mixed to maintain a total cell concentration of […]. Different concentrations (in a gradient) of or no icariside I were added thereto (with final concentration of 100 ng/ml, 1000 ng/ml) followed by fully mixing. Then the cells after stimulation were seeded and cultured in a 96-well round-bottom culture plate. The cell concentration per well was maintained at 2×10^5/ml (200 μl/well) and was incubated at 37° C. with 5% CO2 for 120 h in an incubator. The levels of cytokine IFN-γ were detected.
According to the method stated in Example 5 (4), the γ-interferon generated from human peripheral blood mixed lymphocyte culture (MLC) was detected.
Equal cell concentrations of lymphocytes from healthy human were mixed cultured for five days (120 h). The pharmaceutical icariside I was added (in a gradient of different pharmaceutical concentrations) or not added. […] Among them, the human lymphocyte A control is a group of samples containing only one kind of human lymphocyte, while human lymphocyte B control is a group of samples containing two kinds of human lymphocytes, that is, a control group in which two kinds of human lymphocytes were mixed for culture without adding icariside I. The concentrations of icariside I added were 0.1 and 1 μg/ml respectively. *P<0.05; **P<0.01. […]
Cell concentrations of freshly isolated peripheral blood mononuclear cells (PBMCs) were adjusted to 5×10^5/ml with RPMI1640 complete medium. […] The level of cytokine IFN-γ produced was then detected.

SMILES: CC(C)=CCc1c(OC2OC(CO)C(O)C(O)C2O)cc(O)c2c(=O)c(O)c(-c3ccc(O)cc3)oc12 (stereo not drawn) [icariside C]
- effect in promoting PBMCs to generate IFN-γ [1]: significant effect

SMILES: O=P1(N(CCCl)CCCl)NCCCO1 (stereo not drawn) [cyclophosphamide, reference compound]
- change of body weight (g) [2]: +4.5 g
- tumor inhibition rate (%) with physiological saline group as control [2]: 42.3%
- tumor inhibition rate (%) with solvent group as control [2]: 55.2%
- weight of tumor (x ± SD, g) [2]: 0.6 ± 0.06 g

SMILES: COc1ccc(-c2oc3c(CC=C(C)C)c(O[C@@H]4O[C@H](CO)[C@@H](O)[C@H](O)[C@H]4O)cc(O)c3c(=O)c2O[C@@H]2O[C@@H](C)[C@H](O)[C@@H](O)[C@H]2O)cc1 [icariin, reference compound]
- ability to promote human γ-interferon production in mixed lymphocyte culture [3]: almost no effect
